Test results published in US20230233584A1, “EXTENDED RELEASE 5-HT RECEPTOR AGONISTS FOR NEUROLOGICAL CONDITIONS” (Diamond Therapeutics Inc., priority 2020, published 2023).
Like-named read-outs stand apart in the source and are kept apart here.

Key:
[1] = Psilocybin and psilocin plasma pharmacokinetics after s.c. psilocybin; format: in vivo, rats; details: for Cmax / concentration at 0.25 h / concentration at 0.5 h / concentration at 0.75 h / concentration at 1 h / concentration at 2 h / concentration at 4 h / concentration at 6 h / Tmax / AUC(0-inf) / AUC(0-t) / half-life / MRT inf: rat, rats; for Cmax / concentration at 0.25 h / concentration at 0.5 h / concentration at 0.75 h / concentration at 1 h / concentration at 2 h / concentration at 4 h / concentration at 6 h: plasma; for AUC(0-inf): read-out: AUC0-inf, Mean; for AUC(0-t): read-out: AUC0-tlast, Mean; for half-life: read-out: Apparent t1/2, Mean (converted); for MRT inf: read-out: MRT0-inf, Mean
Description: Psilocybin doses of 0.05, 0.1, 1, 10 mg/kg were used to evaluate psilocybin and psilocin PK in rats. For the doses of psilocybin that positively effect behaviors in the low performers in the PR and 5CSRTT, e.g., 0.05-0.1 mg/kg, the corresponding Cm. of psilocin was ˜7±2 ng/ml at 30 minutes for 0.05 mg/kg, and at a dose of 0.1 mg/kg, the Cm. of psilocin was determined to be ˜12±3 ng/ml at 30 minutes (FIG. 5).
Details of the plasma concentration studies are shown in Tables 1-8 (psilocybin) and 9-16 (psilocin). Values in italics are below the lower level of quantitation (BLQ, <1 ng/mL) but were included in calculations. Values in bold and underlined are considered to be outliers and were omitted from calculations. Measured dosing solution concentrations were 0.0460, 0.0967, 0.948 and 9.65 mg/mL for 0.05, 0.1, 1 and 10 […].

[2] = Minipump infusion of psilocybin over 12 days: plasma/blood exposure; format: in vivo, rats
Description: A dose of psilocybin, which is free from perceptual and behavioral side effects, was dosed in rats (N=24) continuously over a period of 12 days using an Alzet minipump implanted in rats of approximately 380-390 g body weight. The pump was primed to deliver psilocybin at 5 mg/kg/day pump concentration. The target plasma concentration was 10 ng/ml psilocin with actual plasma concentration 9.3+1.3 ng/ml over the 12 day study period.
Blood was collected from rats on days 4, 8 and 12 to measure levels of psilocybin and psilocin in Group B rats. Blood was collected via saphenous bleed at a standard timepoint which will not interfere with 5-choice testing. Psilocin blood levels were in the range of 8-10 ng/ml over days 4-12, while psilocybin blood levels were in the range of 2-5 ng/ml over days 4-12 (FIG. 7A), corresponding to 10 ng/mL psilocin. […] The present observations recorded for psilocybin/psilocin are occurring at exposure levels of psilocin ˜10 ng/ml (e.g., FIG. 5), likely resulting in a low level of CNS 5-HT2A receptor occupancy, and which is insufficient to elicit cardinal signs of 5-HT2A receptor activation such as WDS/BMC in rats (e.g., FIG. 1B).

[3] = subcutaneous, after psilocybin 0.05 mg/kg s.c.
[4] = subcutaneous, after psilocybin 0.1 mg/kg s.c.
[5] = subcutaneous, after psilocybin 1 mg/kg s.c.
[6] = subcutaneous, after psilocybin 10 mg/kg s.c.
[7] = sc, psilocin in plasma after psilocybin 0.05 mg/kg s.c.
[8] = sc, psilocin in plasma after psilocybin 0.1 mg/kg s.c.
[9] = sc, psilocin in plasma after psilocybin 1 mg/kg s.c.
[10] = sc, psilocin in plasma after psilocybin 10 mg/kg s.c.

CN(C)CCc1c[nH]c2cccc(O)c12 [psilocin, 4-hydroxy-N,N-dimethyltryptamine]
Plasma [psilocin] ([1]; Regimen 1, 0.05-0.1 mg/kg acute, increase in breakpoint under PR schedule (low performer subgroup)): ~5 to 12 ng/mL
Plasma [psilocin] ([1]; Regimen 2, 0.05-0.1 mg/kg acute, improvement in attention and response speed in 5-choice test (low performer subgroup)): ~5 to 12 ng/mL
Plasma [psilocin] ([1]; Regimen 3, 0.05-0.1 mg/kg acute, increase in PREM/PSV response in 10 s ITI 5-choice test (low impulsive subgroup)): ~5 to 12 ng/mL
Plasma [psilocin] ([1]; Regimen 5, ≥0.3 mg/kg acute, induction of overt 5-HT2A behaviors of WDS/BMC): ≥25 ng/mL
Cmax ([1]; sc, 0.05 mg/kg, psilocin in plasma after psilocybin 0.05 mg/kg s.c., read-out: Cmax, Mean): 7.14 ng/mL
Cmax ([1]; sc, 0.05 mg/kg, psilocybin 0.05 mg/kg, after 30 mins, read-out: Cmax psilocin): ~6 ng/mL
Cmax ([1]; sc, 0.1 mg/kg, psilocin in plasma after psilocybin 0.1 mg/kg s.c., read-out: Cmax, Mean): 11.7 ng/mL
Cmax ([1]; sc, 1 mg/kg, psilocin in plasma after psilocybin 1 mg/kg s.c., read-out: Cmax, Mean): 83.3 ng/mL
Cmax ([1]; sc, 10 mg/kg, psilocin in plasma after psilocybin 10 mg/kg s.c., read-out: Cmax, Mean): 1110 ng/mL
Cmax ([1]; subcutaneous, 0.05 mg/kg, psilocybin 0.05 mg/kg, after 30 mins, read-out: Cmax psilocin): ~7 ng/mL
Cmax ([1]; subcutaneous, 0.1 mg/kg, psilocybin 0.1 mg/kg, after 30 mins, read-out: Cmax psilocin): ~12 ng/mL
Cmax ([1]; subcutaneous, 1 mg/kg, psilocybin 1 mg/kg, after 30 mins, read-out: Cmax psilocin): ~83 ng/mL
Cmax ([1]; subcutaneous, 10 mg/kg, psilocybin 10 mg/kg, after 30 mins, read-out: Cmax psilocin): ~1110 ng/mL
concentration at 0.25 h [1, 3]: 3.76 ng/mL
concentration at 0.5 h [1, 3]: 5.68 ng/mL
concentration at 0.75 h [1, 3]: 3.11 ng/mL
concentration at 1 h [1, 3]: 5.91 ng/mL
concentration at 2 h [1, 3]: 2.23 ng/mL
concentration at 4 h [1, 3]: 0.49 ng/mL
concentration at 6 h [1, 3]: 0.136 ng/mL
concentration at 0.25 h [1, 4]: 9.35 ng/mL
concentration at 0.5 h [1, 4]: 12.3 ng/mL
concentration at 0.75 h [1, 4]: 7.73 ng/mL
concentration at 1 h [1, 4]: 5.7 ng/mL
concentration at 2 h [1, 4]: 2.78 ng/mL
concentration at 4 h [1, 4]: 0.535 ng/mL
concentration at 6 h [1, 4]: 0.215 ng/mL
concentration at 0.25 h [1, 5]: 74.5 ng/mL
concentration at 0.5 h [1, 5]: 76.6 ng/mL
concentration at 0.75 h [1, 5]: 70.3 ng/mL
concentration at 1 h [1, 5]: 69.9 ng/mL
concentration at 2 h [1, 5]: 29.7 ng/mL
concentration at 4 h [1, 5]: 5.5 ng/mL
concentration at 6 h [1, 5]: 1.34 ng/mL
concentration at 0.25 h [1, 6]: 704 ng/mL
concentration at 0.5 h [1, 6]: 898 ng/mL
concentration at 0.75 h [1, 6]: 1080 ng/mL
concentration at 1 h [1, 6]: 1070 ng/mL
concentration at 2 h [1, 6]: 713 ng/mL
concentration at 4 h [1, 6]: 269 ng/mL
concentration at 6 h [1, 6]: 132 ng/mL
Tmax [1, 7]: 36 min
AUC(0-inf) [1, 7]: 10.3 ng·h/mL
AUC(0-t) [1, 7]: 10.1 ng·h/mL
half-life [1, 7]: 60 min
MRT inf [1, 7]: 104 min
Tmax [1, 8]: 32.2 min
AUC(0-inf) [1, 8]: 15.7 ng·h/mL
AUC(0-t) [1, 8]: 12.5 ng·h/mL
half-life [1, 8]: 55.1 min
MRT inf [1, 8]: 85.2 min
Tmax [1, 9]: 34.3 min
AUC(0-inf) [1, 9]: 143 ng·h/mL
AUC(0-t) [1, 9]: 117 ng·h/mL
half-life [1, 9]: 52.7 min
MRT inf [1, 9]: 91.8 min
Tmax [1, 10]: 42.8 min
AUC(0-inf) [1, 10]: 3380 ng·h/mL
AUC(0-t) [1, 10]: 2280 ng·h/mL
half-life [1, 10]: 99 min
MRT inf [1, 10]: 160 min
Plasma [psilocin] ([2]; Regimen 4, mini-pump chronic, improvement in attention in 10 s ITI 5-choice test): ~10 ng/mL
actual plasma concentration of psilocin ([2]; psilocybin minipump 5 mg/kg/day, over the 12 day study period, rats): 9.3 ± 1.3 ng/mL
Psilocin blood levels ([2]; psilocybin minipump, days 4-12, rats): 8 to 10 ng/mL
